Data set [1] in a line: Microsomal stability assay (intrinsic clearance), human liver microsomes. In kind it is in vitro ADME. The note with it: human in vitro microsomes, first value of Hum/Rat pair. The procedure: (§1) Microsomal Stability Testing—Assay Description
(§2) The microsomal stability assay measures the rate of disappearance of a test compound from an incubation containing human or animal liver microsomes and metabolic cofactors (typically NADPH). The assay is primarily used for ranking the relative CYP-mediated metabolism propensities of compounds within a chemical series and as a guide to selecting sufficiently stable compounds for pharmacokinetics and pharmacodynamics experiments. [In addition to CYPs, microsomally located enzymes which also make use of NADPH (such as […]) and those which require no cofactors (such as carboxylesterases) are active.]
(§3) Incubations are performed in 96-well deep-well plates with a final incubation volume of 600 μL. Incubations contain (finally) 1-2 μM test compound, 0.5 mg/mL liver microsomes (typically human, rat or mouse) and NADPH regenerating system. 50 μL aliquots are removed after 1, 3, 6, 9, 15, 25, 35 and 45 minutes and quenched in 150 μL acetonitrile containing internal standard. Samples are then cooled and centrifuged before analysis by LC-MS/MS.
(§4) Log peak area ratio (test compound peak area/internal standard peak area) is plotted against incubation time and a linear fit made to the data with emphasis upon the initial rate of compound disappearance. The slope of the fit is then used to calculate the intrinsic clearance: Clint(μL/min/mg)=−slope(min^−1)*1000/[protein concentration (mg/mL)]

The nature of data set [2]: Microsomal stability assay (intrinsic clearance), rat liver microsomes. In kind it is in vitro ADME. The note with it: rat in vitro microsomes, second value of Hum/Rat pair. The procedure:
as §1, §2, §3, §4

Data set [3] concerns M17—3TAU(P301L) cells. In words: Neuroblastoma tauopathy model: inhibition of TAU-induced cytotoxicity (LDH). In kind it is cell-based. The note with it: Homo sapiens, 168 h; inhibition of TAU-induced toxicity (LDH), 7 days differentiation with retinoic acid. In short, it runs like this:
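BE-M17 neuroblastoma cells stably expressing human TAU-P301L, differentiated with RA (2.5 μM in added medium) for 7 days at 37 °C with compounds at a range of concentrations. Cytotoxicity as supernatant LDH over total LDH (Cytotox 96); EC50 from dose-dependent inhibition curve.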

Take `Cc1ccc(-c2nsc(N3CCN(Cc4ccc5c(c4)OCO5)CC3)n2)cc1` [Example 2, 1-Benzo[1,3]dioxol-5-ylmethyl-4-(3-p-tolyl-[1,2,4]thiadiazol-5-yl)-piperazine]: the intrinsic clearance (microsomal CLint) came out at 19 µL/min/mg in data set [1] and 48 µL/min/mg in data set [2]. The compound further had an EC50 in data set [3] of 587 nM.

Turning to `O=S(=O)(c1ccc(OC(F)(F)F)cc1)N1CCN(c2nc(Cc3ccc(F)cc3)ns2)CC1` [reference compound], the microsomal CLint was found to be 46 µL/min/mg in data set [1] and 103 µL/min/mg in data set [2].

For `Fc1cccc(-c2nsc(N3CCN(CCc4ccc(Cl)cc4)CC3)n2)c1` [Example 88, 1-[2-(4-Chloro-phenyl)-ethyl]-4-[3-(3-fluoro-phenyl)-[1,2,4]thiadiazol-5-yl]-piperazine], the microsomal CLint amounted to 12 µL/min/mg in data set [1] and 23 µL/min/mg in data set [2]. The compound also showed an EC50 in data set [3] of 121 nM.

On to `Fc1ccc(Cc2nsc(N3CCN(Cc4ccc5c(c4)OCO5)CC3)n2)cc1` [reference compound], for which the microsomal CLint in data set [1] turned out to be 39 µL/min/mg; in data set [2] it was 482 µL/min/mg.

With `COc1cccc(C(O)CN2CCN(c3nc(-c4ccc(Cl)cc4)ns3)CC2)c1` (centres unmarked) [Example 61, 2-{4-[3-(4-Chloro-phenyl)-[1,2,4]thiadiazol-5-yl]-piperazin-1-yl}-1-(3-methoxy-phenyl)-ethanol], in data set [3], the concentration for a half-maximal effect (EC50) is 44.4 nM.

For `Clc1ccc(-c2nsc(N3CCN(CCc4ccccc4Cl)CC3)n2)cc1` [Example 29, 1-[2-(2-Chloro-phenyl)-ethyl]-4-[3-(4-chloro-phenyl)-[1,2,4]thiadiazol-5-yl]-piperazine], in data set [3], the response was half-maximal at 1.3 nM (EC50).

As for `Fc1ccccc1CCN1CCN(c2nc(-c3ccc(Cl)cc3)ns2)CC1` [Example 28, 1-[3-(4-Chloro-phenyl)-[1,2,4]thiadiazol-5-yl]-4-[2-(2-fluoro-phenyl)-ethyl]-piperazine], the EC50 in data set [3] is 45.2 nM.

For `COc1ccc(-c2nsc(N3CCN(CCc4cccc(OC)c4)CC3)n2)cc1` [Example 49, 1-[2-(3-Methoxy-phenyl)-ethyl]-4-[3-(4-methoxy-phenyl)-[1,2,4]thiadiazol-5-yl]-piperazine], the 50% effective concentration (EC50) in data set [3] was determined as 49.6 nM.

As for `COc1ccc(CCN2CCN(c3nc(-c4cccc(C#N)c4)ns3)CC2)cc1` [Example 81, 3-(5-{4-[2-(4-Methoxy-phenyl)-ethyl]-piperazin-1-yl}-[1,2,4]thiadiazol-3-yl)-benzonitrile], in data set [3], the response was half-maximal at 0.6 nM (EC50).

`Fc1ccc(-c2nsc(N3CCN(CCc4ccc(Cl)cc4)CC3)n2)cc1F` [Example 104, 1-[2-(4-Chloro-phenyl)-ethyl]-4-[3-(3,4-difluoro-phenyl)-[1,2,4]thiadiazol-5-yl]-piperazine] gave an EC50 in data set [3] of 11.2 nM.

The compound `Fc1ccc(CCN2CCN(c3nc(-c4ccc(Cl)cc4)ns3)CC2)cc1` [Example 24, 1-[3-(4-Chloro-phenyl)-[1,2,4]thiadiazol-5-yl]-4-[2-(4-fluoro-phenyl)-ethyl]-piperazine] showed an EC50 in data set [3] of 0.7 nM.
